What was measured:
[1] = tested on: H4b receptor variant; conditions: 1 μM in PBS, 37° C., 30 min, transfected COS-7 cells, H4b variant cDNA, compared with H4a-transfected cells
Description: (§1) The full length wild type […]) and the isoforms H4b and […] were cloned in pCDNA3.1 […] Tag eukaryotic expression vector for expression in COS-7 cells. The COS-7 cells grown in culture chambers were transfected with 2 μg of plasmid DNA containing either one of the H4 isoforms or the wild type H4 with superfect (Qiagen) transfection reagent. Binding of Histamine to receptor or receptor variants was determined by BODIPY-L-Histamine or Fluorescein Histamine (Molecular Probes, Eugene Oreg.). Briefly, the transfected cells were washed with PBS and 1 μM concentration of BODIPY-L-Histamine or Fluorescein Histamine in PBS was added to the cells and incubated at 37° C. for 30-min. Unbound fluorescent labelled histamine was washed in cold PBS and the slides were examined immediately under a fluorescent microscope.

[2] = tested on: H4c receptor variant; conditions: 1 μM in PBS, 37° C., 30 min, transfected COS-7 cells, H4c variant cDNA, compared with H4a-transfected cells
Description: as §1

Substance	Binding of fluorescent labelled histamine (fluorescence under microscope) versus H4 wildtype (H4a) [1]	Binding of fluorescent labelled histamine (fluorescence under microscope) versus H4 wildtype (H4a) [2]
BODIPY-L-Histamine	qualitatively comparable fluorescence	qualitatively comparable fluorescence
Fluorescein Histamine	qualitatively comparable fluorescence	qualitatively comparable fluorescence

Source: patent US7164003B2, “Histamine receptor H4 polynucleotides” (Merck & Co. Inc., priority 2001, dated 2007)
